Test results reported in patent US20160297833A1, “THIENOPYRIMIDINES AS MKNK1 AND MKNK2 INHIBITORS” (BAYER PHARMA AKTIENGESELLSCHAFT, priority 2013, published 2016).

The compounds below were run against T1, human full-length MKNK1 (Homo sapiens, UniProt Q9BUB5, T385D) (assay: MKNK1 kinase high ATP assay (TR-FRET)). Details: Table 1; MKNK1 kinase high ATP assay, 2 mM ATP; read-out: MKNK1 IC50.
T1 construct: GST (N); purchased Carna Biosciences 02-145; host or cells: insect cells (baculovirus expression system)
Type: biochemical
How it was run: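 Full-length human MKNK1 (T385D) preincubated 15 min at 22 °C with compound in HEPES pH 7.5/MgCl2/DTT buffer; reaction with 2 mM ATP (final) and 0.06 μM biotinylated peptide (final), 30 min at 22 °C.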

T1 sequence (Q9BUB5 1-424 isoform Q9BUB5-2 T344D): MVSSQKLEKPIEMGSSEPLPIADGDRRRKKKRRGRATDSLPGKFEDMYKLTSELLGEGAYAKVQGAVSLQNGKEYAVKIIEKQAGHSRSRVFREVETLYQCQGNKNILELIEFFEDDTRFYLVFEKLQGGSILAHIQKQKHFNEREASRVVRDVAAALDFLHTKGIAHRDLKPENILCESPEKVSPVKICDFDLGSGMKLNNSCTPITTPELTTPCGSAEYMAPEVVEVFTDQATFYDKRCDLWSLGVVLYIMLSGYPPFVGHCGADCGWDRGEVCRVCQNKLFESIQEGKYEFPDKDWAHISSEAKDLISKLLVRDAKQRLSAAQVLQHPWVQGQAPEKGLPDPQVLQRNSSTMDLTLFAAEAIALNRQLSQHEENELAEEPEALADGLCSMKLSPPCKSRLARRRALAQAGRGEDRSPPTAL

Row | IC50 [nM] | SMILES
1 | 3.5 | C[C@H](N)COc1cc2[nH]ncc2cc1Nc1ncnc2sc3c(c12)CC[C@H](C(=O)N(C)C)C3 [Example 142, (7S)-4-[(6-{[(2S)-2-Aminopropyl]oxy}-1H-indazol-5-yl)amino]-N,N-dimethyl-5,6,7,8-tetrahydro[1]benzothieno[2,3-d]pyrimidine-7-carboxamide]
2 | 3 | C[C@H](N)COc1cc2[nH]ncc2cc1Nc1ncnc2sc3c(c12)CC[C@H](C(=O)N1CCOC[C@@H]1C)C3 [Example 143, {(7S)-4-[(6-{[(2S)-2-Aminopropyl]oxy}-1H-indazol-5-yl)amino]-5,6,7,8-tetrahydro[1]benzothieno[2,3-d]pyrimidin-7-yl}[(3S)-3-methylmorpholin-4-yl]methanone]
3 | 1 | C[C@H](CN)Oc1cc2[nH]ncc2cc1Nc1ncnc2sc3c(c12)CC[C@H](C(=O)N1CCOC[C@H]1C)C3 [Example 144, {(7S)-4-[(6-{[(2R)-1-Aminopropan-2-yl]oxy}-1H-indazol-5-yl)amino]-5,6,7,8-tetrahydro[1]benzothieno[2,3-d]pyrimidin-7-yl}[(3R)-3-methylmorpholin-4-yl]methanone]
4 | 5.1 | C[C@@H](CN)Oc1cc2[nH]ncc2cc1Nc1ncnc2sc3c(c12)CC[C@H](C(=O)N1CCOC[C@@H]1C)C3 [Example 145, {(7S)-4-[(6-{[(2S)-1-Aminopropan-2-yl]oxy}-1H-indazol-5-yl)amino]-5,6,7,8-tetrahydro[1]benzothieno[2,3-d]pyrimidin-7-yl}[(3S)-3-methylmorpholin-4-yl]methanone]
5 | 13.1 | C[C@H](N)COc1cc2[nH]ncc2cc1Nc1ncnc2sc3c(c12)CC[C@H](C(=O)N1CCOC[C@H]1C)C3 [Example 146, {(7S)-4-[(6-{[(2S)-2-Aminopropyl]oxy}-1H-indazol-5-yl)amino]-5,6,7,8-tetrahydro[1]benzothieno[2,3-d]pyrimidin-7-yl}[(3R)-3-methylmorpholin-4-yl]methanone]
6 | 5.6 | C[C@@H](N)COc1cc2[nH]ncc2cc1Nc1ncnc2sc3c(c12)CC[C@H](C(=O)N(C)C)C3 [Example 147, (7S)-4-[(6-{[(2R)-2-Aminopropyl]oxy}-1H-indazol-5-yl)amino]-N,N-dimethyl-5,6,7,8-tetrahydro[1]benzothieno[2,3-d]pyrimidine-7-carboxamide]
7 | 4.2 | C[C@@H]1COCCN1C(=O)[C@H]1CCc2c(sc3ncnc(Nc4cc5cn[nH]c5cc4O[C@@H](C)CN)c23)C1 [Example 148, {(7S)-4-[(6-{[(2S)-1-Aminopropan-2-yl]oxy}-1H-indazol-5-yl)amino]-5,6,7,8-tetrahydro[1]benzothieno[2,3-d]pyrimidin-7-yl}[(3R)-3-methylmorpholin-4-yl]methanone]
8 | 5.2 | C[C@@H](N)COc1cc2[nH]ncc2cc1Nc1ncnc2sc3c(c12)CC[C@H](C(=O)N1CCOC[C@@H]1C)C3 [Example 149, {(7S)-4-[(6-{[(2R)-2-Aminopropyl]oxy}-1H-indazol-5-yl)amino]-5,6,7,8-tetrahydro[1]benzothieno[2,3-d]pyrimidin-7-yl}[(3S)-3-methylmorpholin-4-yl]methanone]
9 | 7.3 | C[C@@H]1COCCN1C(=O)[C@H]1CCc2c(sc3ncnc(Nc4cc5cn[nH]c5cc4OC[C@@H](C)N)c23)C1 [Example 150, {(7S)-4-[(6-{[(2R)-2-Aminopropyl]oxy}-1H-indazol-5-yl)amino]-5,6,7,8-tetrahydro[1]benzothieno[2,3-d]pyrimidin-7-yl}[(3R)-3-methylmorpholin-4-yl]methanone]
10 | 39.6 | CN(C)CCN(C)c1cc2[nH]ncc2cc1Nc1ncnc2sc3c(c12)CC[C@H](C(=O)N(C)C)C3 [Example 151, (7S)-4-[(6-{[2-(Dimethylamino)ethyl](methyl)amino}-1H-indazol-5-yl)amino]-N,N-dimethyl-5,6,7,8-tetrahydro[1]benzothieno[2,3-d]pyrimidine-7-carboxamide]
11 | 0.6 | C[C@H](CN)Oc1cc2[nH]ncc2cc1Nc1ncnc2sc3c(c12)CC[C@H](C(=O)N(C)C)C3 [Example 152, (7S)-4-[(6-{[(2R)-1-Aminopropan-2-yl]oxy}-1H-indazol-5-yl)amino]-N,N-dimethyl-5,6,7,8-tetrahydro[1]benzothieno[2,3-d]pyrimidine-7-carboxamide]
12 | 17.5 | CN(C)C1CCN(c2cc3[nH]ncc3cc2Nc2ncnc3sc4c(c23)CC[C@H](C(=O)N2C[C@@H]3C[C@H]2CO3)C4)CC1 [Example 153, [(7S)-4-({6-[4-(Dimethylamino)piperidin-1-yl]-1H-indazol-5-yl}amino)-5,6,7,8-tetrahydro[1]benzothieno[2,3-d]pyrimidin-7-yl][(1S,4S)-2-oxa-5-azabicyclo[2.2.1]hept-5-yl]methanone]
13 | 22.9 | CN(C)C1CCN(c2cc3[nH]ncc3cc2Nc2ncnc3sc4c(c23)CC[C@H](C(=O)N2C[C@H]3C[C@@H]2CO3)C4)CC1 [Example 154, [(7S)-4-({6-[4-(Dimethylamino)piperidin-1-yl]-1H-indazol-5-yl}amino)-5,6,7,8-tetrahydro[1]benzothieno[2,3-d]pyrimidin-7-yl][(1R,4R)-2-oxa-5-azabicyclo[2.2.1]hept-5-yl]methanone]
14 | 7.6 | CC(C)N(C)C(=O)[C@H]1CCc2c(sc3ncnc(Nc4cc5cn[nH]c5cc4N4CCC(N(C)C)CC4)c23)C1 [Example 155, (7S)-4-({6-[4-(Dimethylamino)piperidin-1-yl]-1H-indazol-5-yl}amino)-N-methyl-N-(propan-2-yl)-5,6,7,8-tetrahydro[1]benzothieno[2,3-d]pyrimidine-7-carboxamide]
15 | 10.7 | CCCN(C)C(=O)[C@H]1CCc2c(sc3ncnc(Nc4cc5cn[nH]c5cc4N4CCC(N(C)C)CC4)c23)C1 [Example 156, (7S)-4-({6-[4-(Dimethylamino)piperidin-1-yl]-1H-indazol-5-yl}amino)-N-methyl-N-propyl-5,6,7,8-tetrahydro[1]benzothieno[2,3-d]pyrimidine-7-carboxamide]
16 | 21.6 | CCN(CCOC)C(=O)[C@H]1CCc2c(sc3ncnc(Nc4cc5cn[nH]c5cc4N4CCC(N(C)C)CC4)c23)C1 [Example 157, (7S)-4-({6-[4-(Dimethylamino)piperidin-1-yl]-1H-indazol-5-yl}amino)-N-ethyl-N-(2-methoxyethyl)-5,6,7,8-tetrahydro[1]benzothieno[2,3-d]pyrimidine-7-carboxamide]
17 | 10 | CCN(C)C(=O)[C@H]1CCc2c(sc3ncnc(Nc4cc5cn[nH]c5cc4N4CCC(N(C)C)CC4)c23)C1 [Example 158, (7S)-4-({6-[4-(Dimethylamino)piperidin-1-yl]-1H-indazol-5-yl}amino)-N-ethyl-N-methyl-5,6,7,8-tetrahydro[1]benzothieno[2,3-d]pyrimidine-7-carboxamide]
18 | 1.9 | CCCOc1cc2[nH]ncc2cc1Nc1ncnc2sc3c(c12)CC[C@H](C(=O)N1CC(O)C1)C3 [Example 159, (3-Hydroxyazetidin-1-yl){(7S)-4-[(6-propoxy-1H-indazol-5-yl)amino]-5,6,7,8-tetrahydro[1]benzothieno[2,3-d]pyrimidin-7-yl}methanone]
19 | 1.2 | CC(C)Oc1cc2[nH]ncc2cc1Nc1ncnc2sc3c(c12)CC[C@H](C(=O)N1C[C@@H](C)O[C@@H](C)C1)C3 [Example 160, [(2R,6S)-2,6-dimethylmorpholin-4-yl][(7S)-4-{[6-(propan-2-yloxy)-1H-indazol-5-yl]amino}-5,6,7,8-tetrahydro[1]benzothieno[2,3-d]pyrimidin-7-yl]methanone]
20 | 1.2 | COc1cc2[nH]ncc2cc1Nc1ncnc2sc3c(c12)CC[C@H](C(=O)N1C[C@@H](C)O[C@@H](C)C1)C3 [Example 161, [(2R,6S)-2,6-dimethylmorpholin-4-yl]{(7S)-4-[(6-methoxy-1H-indazol-5-yl)amino]-5,6,7,8-tetrahydro[1]benzothieno[2,3-d]pyrimidin-7-yl}methanone]
21 | 11.6 | C[C@@H]1CN(C(=O)[C@H]2CCc3c(sc4ncnc(Nc5ccc6[nH]ncc6c5)c34)C2)C[C@H](C)O1 [Example 162, [(2R,6S)-2,6-dimethylmorpholin-4-yl][(7S)-4-(1H-indazol-5-ylamino)-5,6,7,8-tetrahydro[1]benzothieno[2,3-d]pyrimidin-7-yl]methanone]
22 | 0.6 | COc1cc2[nH]ncc2cc1Nc1ncnc2sc3c(c12)CC[C@H](C(=O)N1CC(F)C1)C3 [Example 163, (3-fluoroazetidin-1-yl){(7S)-4-[(6-methoxy-1H-indazol-5-yl)amino]-5,6,7,8-tetrahydro[1]benzothieno[2,3-d]pyrimidin-7-yl}methanone]
23 | 0.7 | COc1cc2[nH]ncc2cc1Nc1ncnc2sc3c(c12)CC[C@H](C(=O)N1CC(F)(F)C1)C3 [Example 164, (3,3-difluoroazetidin-1-yl){(7S)-4-[(6-methoxy-1H-indazol-5-yl)amino]-5,6,7,8-tetrahydro[1]benzothieno[2,3-d]pyrimidin-7-yl}methanone]
24 | 0.2 | CN(C)C(=O)[C@H]1CCc2c(sc3ncnc(Nc4cc5cn[nH]c5cc4OCCNC(=O)OC(C)(C)C)c23)C1 [Example 165, tert-butyl {2-[(5-{[(7S)-7-(dimethylcarbamoyl)-5,6,7,8-tetrahydro[1]benzothieno[2,3-d]pyrimidin-4-yl]amino}-1H-indazol-6-yl)oxy]ethyl}carbamate]
25 | 20.6 | CN(C)C1CCN(c2cc3[nH]ncc3cc2Nc2ncnc3sc4c(c23)CC[C@H](C(=O)N2CC3(COC3)C2)C4)CC1 [Example 166, [(7S)-4-({6-[4-(dimethylamino)piperidin-1-yl]-1H-indazol-5-yl}amino)-5,6,7,8-tetrahydro[1]benzothieno[2,3-d]pyrimidin-7-yl](2-oxa-6-azaspiro[3.3]hept-6-yl)methanone]
26 | 0.3 | CCOc1cc2[nH]ncc2cc1Nc1ncnc2sc3c(c12)CC[C@H](C(=O)N1C[C@@H](C)O[C@@H](C)C1)C3 [Example 167, [(2R,6S)-2,6-dimethylmorpholin-4-yl]{(7S)-4-[(6-ethoxy-1H-indazol-5-yl)amino]-5,6,7,8-tetrahydro[1]benzothieno[2,3-d]pyrimidin-7-yl}methanone]
